According to patent US7834011B2, “Heterocyclylalkyl derivatives as novel inhibitors of histone deacetylase” (Janssen Pharmaceutica N.V., priority 2006, dated 2010):

Key:
[1] = biological target: histone deacetylase (HeLa nuclear extracts); assay: In vitro assay for inhibition of histone deacetylase with fluorescent-labelled substrate (Fluor de Lys); assay type: biochemical
From the text: The in vitro assay for inhibition of histone deacetylase (see example C.1) measures the inhibition of HDAC enzymatic activity obtained with the compounds of formula (I).
The HDAC Fluorescent Activity Assay/Drug Discovery Kit of Biomol (cat. No: AK-500-0001) was used. The HDAC Fluorescent Activity Assay is based on the Fluor de Lys (Fluorogenic Histone deAcetylase Lysyl) substrate and developer combination. The Fluor de Lys substrate, comprises an acetylated lysine side chain. Deacetylation of the substrate sensitizes the substrate so that, in the second step, treatment with the Fluor de Lys developer produces a fluorophore.
HeLa nuclear extracts (supplier: Biomol) were incubated at 60 μg/ml with 75 μM of substrate. The Fluor de Lys substrate was added in a buffer containing 25 mM Tris, 137 mM NaCl, 2.7 mM KCl and 1 mM MgCl2.6H2O at pH 7.4. After 30 min, 1 volume of the developer was added. The fluorophore was excited with 355 nm light and the emitted light (450 nm) was be detected on a fluorometric plate reader.
For each experiment, controls (containing HeLa nuclear extract and buffer), a blank incubation (containing buffer but no HeLa nuclear extract) and samples (containing compound dissolved in DMSO and further diluted in buffer and HeLa nuclear extract) were run in parallel. In first instance, compounds were tested at a concentration of 10^−5M. […] All sample were tested 4 times. In each test the blank value was subtracted from both the control and the sample values. The control sample represented 100% of substrate deactylation. For each sample the fluorescence was expressed as a percentage of the mean value of the controls. […] Herein the effects of test compounds are expressed as pIC50 (the negative log value of the IC50-value) (see Table F-2).

[2] = test system: A2780 ovarian carcinoma cells; assay: Antiproliferative activity on A2780 cells (MTT); assay type: cell-based; details: Homo sapiens, 96 h, four days of incubation, read-out: Cellular activity pIC50 C.2 (converted)
Protocol: Cellular activity of the compounds of formula (I) was determined on A2780 tumour cells using a colorimetric assay for cell toxicity or survival (Mosmann Tim, Journal of Immunological Methods 65: 55-63, 1983)(see example C.2).
All compounds tested were dissolved in DMSO and further dilutions were made in culture medium. Final DMSO concentrations never exceeded 0.1% (v/v) in cell proliferation assays. Controls contained A2780 cells and DMSO without compound and blanks contained DMSO but no cells. MTT was dissolved at 5 mg/ml in PBS. A glycine buffer comprised of 0.1 M glycine and 0.1 M NaCl buffered to pH 10.5 with NaOH (1 N) was prepared (all reagents were from Merck).
The human A2780 ovarian carcinoma cells (a kind gift from Dr. T. C. Hamilton [Fox Chase Cancer Centre, Pennsylvania, USA]) were cultured in RPMI 1640 medium supplemented with 2 mM L-glutamine, 50 μg/ml gentamicin and 10% fetal calf serum. Cells were routinely kept as monolayer cultures at 37° C. in a humidified 5% CO2 atmosphere. Cells were passaged once a week using a trypsin/EDTA solution at a split ratio of 1:40. All media and supplements were obtained from Life Technologies. Cells were free of mycoplasma contamination as determined using the Gen-Probe Mycoplasma Tissue Culture kit (supplier: BioMérieux).
Cells were seeded in NUNC™ 96-well culture plates (Supplier: Life Technologies) and allowed to adhere to the plastic overnight. Densities used for plating were 1500 cells per well in a total volume of 200 μl medium. After cell adhesion to the plates, medium was changed and drugs and/or solvents were added to a final volume of 200 μl. Following four days of incubation, medium was replaced by 200 μl fresh medium and cell density and viability was assessed using an MTT-based assay. To each well, 25 μl MTT solution was added and the cells were further incubated for 2 hours at 37° C. The medium was then carefully aspirated and the blue MTT-formazan product was solubilized by addition of 25 μl glycine buffer followed by 100 μl of DMSO. […] Within an experiment, the results for each experimental condition are the mean of 3 replicate wells. For initial screening purposes, compounds were tested at a single fixed concentration of 10^−6 M. For active compounds, the experiments were repeated to establish full concentration-response curves. For each experiment, controls (containing no drug) and a blank incubation (containing no cells or drugs) were run in parallel. The blank value was subtracted from all control and sample values. For each sample, the mean value for cell growth (in absorbance units) was expressed as a percentage of the mean value for cell growth of the control. […] Herein the effects of test compounds are expressed as pIC50 (the negative log value of the IC50-value)(see Table F-2).

[3] = Kinetic solubility in aqueous media C.3.a (nephelometer); assay type: physicochemical; details: aqueous buffer, kinetic from dmso stock; phosphate citrate buffer pH 7.4, turbidity; read-out: Kinetic solubility score (C.3.a)
Protocol: The solubility of a compound measures the ability of a compound to stay in solution. In a first method the ability of a compound to stay in aqueous solution upon dilution (see example C.3.a) is measured. DMSO-stock solutions are diluted with a single aqueous buffer solvent in 3 consecutive steps. For every dilution turbidity is measured with a nephelometer.
In the first dilution step, 10 μl of a concentrated stock-solution of the active compound, solubilized in DMSO (5 mM), was added to 100 μl phosphate citrate buffer pH 7.4 and mixed. In the second dilution step, an aliquot (20 μl) of the first dilution step was further dispensed in 100 μl phosphate citrate buffer pH 7.4 and mixed. Finally, in the third dilution step, a sample (20 μl) of the second dilution step was further diluted in 100 μl phosphate citrate buffer pH 7.4 and mixed. All dilutions were performed in 96-well plates. Immediately after the last dilution step the turbidity of the three consecutive dilution steps were measured with a nephelometer. Dilution was done in triplicate for each compound to exclude occasional errors. Based on the turbidity measurements a ranking is performed into 3 classes. Compounds with high solubility obtained a score of 3 and for this compounds the first dilution is clear. Compounds with medium solubility obtained a score of 2. […]

For `Cn1c(CNCC2CCN(c3ncc(C(=O)NO)cn3)CC2)nc2ccccc21` [Compound 3], the “Enzymatic activity pIC50 C.1” value [1] was 8.1, the IC50 [2] was 100 nM and the solubility kinetic [3] was greater than 455 µM. For the same compound, the melting point was 209 °C.
